Test results from patent publication US20220304947A1, “COMPOSITIONS AND METHODS FOR INHIBITING PROTEOLYTIC ACTIVATION OF VIRUSES” (priority 2021, published 2022).
Like-named read-outs stand apart in the source and are kept apart here. Residues, ends and D or L forms follow the SMILES beside them. *: point of attachment. Decanoyl = CCCCCCCCCC(=O)*; CH2Cl = ClC*

What was measured:
[1] = molecular target: Recombinant human Furin protein (Homo sapiens, UniProt P09958); assay: Inhibition of proteolytic enzyme (Furin) activity, fluorogenic substrate pGlu-Arg-Thr-Lys-Arg-AMC; type: biochemical; settings: for inhibition at 6.25 µg/mL: at 6.25 μg/ml; for inhibition at 100 µg/mL: at 100 μg/ml
[2] = test system: SARS-CoV-2; assay: Anti-viral assay against SARS-CoV-2 in Vero E6 cells (qRT-PCR viral load); type: cell-based; settings: Ribavirin 2 μM, compared to infected cells only
[3] = read-out: Percentage inhibition of Furin
[4] = read-out: IC50, inhibition of Furin (converted)

Chain of Recombinant human Furin protein (P09958 108-794): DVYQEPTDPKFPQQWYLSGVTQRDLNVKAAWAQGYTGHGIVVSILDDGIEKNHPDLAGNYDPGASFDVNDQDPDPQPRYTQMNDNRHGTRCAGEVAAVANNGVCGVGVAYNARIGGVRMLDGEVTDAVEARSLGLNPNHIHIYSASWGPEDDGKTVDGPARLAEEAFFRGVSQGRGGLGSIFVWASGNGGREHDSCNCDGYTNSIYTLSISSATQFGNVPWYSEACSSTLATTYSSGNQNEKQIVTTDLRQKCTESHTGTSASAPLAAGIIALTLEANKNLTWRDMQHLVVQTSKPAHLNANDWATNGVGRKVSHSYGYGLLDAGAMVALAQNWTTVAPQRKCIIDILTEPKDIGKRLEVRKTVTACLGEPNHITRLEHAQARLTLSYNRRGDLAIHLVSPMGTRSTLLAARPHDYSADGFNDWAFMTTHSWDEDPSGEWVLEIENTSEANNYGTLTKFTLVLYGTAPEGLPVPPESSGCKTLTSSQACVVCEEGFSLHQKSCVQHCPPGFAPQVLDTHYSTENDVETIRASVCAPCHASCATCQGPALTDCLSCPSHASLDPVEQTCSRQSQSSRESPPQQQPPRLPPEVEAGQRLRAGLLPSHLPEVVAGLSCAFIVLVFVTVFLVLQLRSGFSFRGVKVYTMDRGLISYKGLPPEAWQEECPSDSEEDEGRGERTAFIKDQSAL

inhibition at 25 µg/mL ([1]; at 25 μg/ml, read-out: Percentage inhibition of Furin) | SMILES | IC50 ([1]; read-out: IC50, inhibition of Furin (positive control)) | inhibition at 6.25 µg/mL [1, 3] | inhibition at 100 µg/mL [1, 3] | IC50 [1, 4] | reduction of viral load [2]
– | CCCCCCCCCC(=O)N[C@@H](CCCNC(=N)N)C(=O)N[C@H](C(=O)N[C@@H](CCCCN)C(=O)N[C@@H](CCCNC(=N)N)C(=O)CCl)C(C)C [Decanoyl RVKR chloromethyl ketone] (Decanoyl-RVKR-CH2Cl) | 0.0134 µM | – | – | – | –
– | O=C(/C=C/c1ccc(O)cc1)CC(=O)/C=C/c1ccc(O)cc1 [BDMC, Bisdemethoxycurcumin] | – | 34% | 78% | 48 µM | –
64.2% | COc1cc(/C=C/C(=O)CC(=O)/C=C/c2ccc(O)c(OC)c2)ccc1O [Curcumin] | – | 9.64% | 72.6% | 62.6 µM | –
– | NC(=O)c1ncn([C@@H]2O[C@H](CO)[C@@H](O)[C@H]2O)n1 [Ribavirin] | – | – | – | – | 83%
